Experimental data taken from paper PMC5263248, “Blood Group Antigen Recognition via the Group A Streptococcal M Protein Mediates Host Colonization” (mBio, 2017).

Target: T1, M1 protein (Streptococcus pyogenes, UniProt Q99XV0)
T1 construct: gene emm1; captured on NTA chip
Assay: SPR, single-cycle, steady-state affinity
Type: binding
Conditions: protein captured on NTA chip via His tag, PBS, 25 °C

T1 sequence (Q99XV0 entry or part of it): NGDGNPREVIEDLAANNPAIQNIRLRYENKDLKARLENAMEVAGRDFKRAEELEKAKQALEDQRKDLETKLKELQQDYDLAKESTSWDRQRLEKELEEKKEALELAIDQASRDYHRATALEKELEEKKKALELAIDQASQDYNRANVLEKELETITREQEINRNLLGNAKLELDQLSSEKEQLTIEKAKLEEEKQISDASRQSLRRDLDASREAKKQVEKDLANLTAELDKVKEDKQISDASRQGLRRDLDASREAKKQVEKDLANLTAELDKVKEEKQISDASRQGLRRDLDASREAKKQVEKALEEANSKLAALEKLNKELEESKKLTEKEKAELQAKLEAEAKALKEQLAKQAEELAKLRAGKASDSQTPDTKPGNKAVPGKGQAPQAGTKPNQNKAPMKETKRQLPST

SMILES	Kd
CC(=O)N[C@H]1[C@@H](O[C@H]2[C@@H](O)[C@@H](CO)OC(O)[C@@H]2O[C@@H]2O[C@@H](C)[C@@H](O)[C@@H](O)[C@@H]2O)O[C@H](CO)[C@H](O)[C@@H]1O (some centres unmarked) [7K, GalNAcα1-3(Fucα1-2)Gal]	2500 ± 400 nM
C[C@@H]1O[C@@H](O[C@H]2C(O)O[C@H](CO)[C@H](O)[C@@H]2O[C@H]2O[C@H](CO)[C@H](O)[C@H](O)[C@H]2O)[C@@H](O)[C@H](O)[C@@H]1O (some centres unmarked) [blood group B trisaccharide, Galα1-3(Fucα1-2)Gal]	518 ± 51.3 nM
